Assays:
[1] = Storage stability: resveratrol in supernatant of aqueous dispersions (UV method); format: physicochemical
Experimental: Resveratrol-caseinate complex used was the oven-dried material described in Example 8 (non-dispersible material was not removed by centrifugation). Crystalline resveratrol was included for comparison.
Complexed and crystalline resveratrol was dispersed in deionized water of pH 6.8 or 3.0 to give a final target dispersion concentration of 60 and 80 ppm. The desired pH was achieved by pH adjustment using dilute HCl or NaHCO3 The samples were heated in a water bath till 80° C. and then held at 80° C. for 1 minute. The samples were stored in the dark at 25° C. and 5° C. During storage, resveratrol recrystallized and precipitated in some samples. The resveratrol concentration in the supernatant were determined by a UV method and the results are shown below, […]

[2] = Dispersion stability of 10% dispersion: resveratrol content, upper part vs after mixing; format: physicochemical; conditions: aqueous dispersion; likely much less using similar dispersion conditions
Experimental: The powder (2.5 g) was dispersed in deionized water (47.5 g) with stirring. The dispersion was centrifuged at 3000 rpm for 5 minutes (Sigma Centrifuge 6-10, Sigma Laborzentrifugen GmbH, Germany) to remove the un-dispersible material. The supernatant was lyophilized to yield 1.7 g powder. The powder (1 g) was suspended in deionized water (9 g) to give a 10% homogenous dispersion. A sample of the dispersion was placed in a test tube and stored at room temperature for 3 hours and then at 5° C. for 1 day. A small sample was taken from the upper part of the test tube and then a sample was taken after mixing. […] The results indicated the dispersion stability. The highly concentrate dispersion can be conveniently used for various applications in pharmaceuticals and cosmetics, food and feed, especially in beverages.
A dispersion of more than 0.005% (likely much less using similar dispersion conditions) of non-complexed resveratrol would result in precipitation of resveratrol.

[3] = target 60 ppm, pH 3.0, stored in the dark at 5 C.
[4] = target 60 ppm, pH 3.0, stored in the dark at 25 C.
[5] = target 60 ppm, pH 6.8, stored in the dark at 5 C.
[6] = target 60 ppm, pH 6.8, stored in the dark at 25 C.
[7] = target 80 ppm, pH 3.0, stored in the dark at 5 C.
[8] = target 80 ppm, pH 3.0, stored in the dark at 25 C.
[9] = target 80 ppm, pH 6.8, stored in the dark at 5 C.
[10] = target 80 ppm, pH 6.8, stored in the dark at 25 C.

- Resveratrol in supernatant, Initial ([1]; target 60 ppm, pH 3.0, 5 C.): 58 ppm
- Resveratrol in supernatant, Initial ([1]; target 60 ppm, pH 3.0, 25 C.): 58 ppm
- Resveratrol in supernatant, 1 week [1, 3]: 28 ppm
- Resveratrol in supernatant, 1 week (% in parentheses) [1, 3]: 48%
- Resveratrol in supernatant, 2.4 week [1, 3]: 19 ppm
- Resveratrol in supernatant, 2.4 week (% in parentheses) [1, 3]: 33%
- Resveratrol in supernatant, 1 week [1, 4]: 43 ppm
- Resveratrol in supernatant, 1 week (% in parentheses) [1, 4]: 74%
- Resveratrol in supernatant, 2.4 week [1, 4]: 39 ppm
- Resveratrol in supernatant, 2.4 week (% in parentheses) [1, 4]: 67%
- Resveratrol in supernatant, Initial ([1]; target 60 ppm, pH 6.8, 5 C.): 60 ppm
- Resveratrol in supernatant, Initial ([1]; target 60 ppm, pH 6.8, 25 C.): 60 ppm
- Resveratrol in supernatant, 1 week [1, 5]: 23 ppm
- Resveratrol in supernatant, 1 week (% in parentheses) [1, 5]: 38%
- Resveratrol in supernatant, 2.4 week [1, 5]: 17 ppm
- Resveratrol in supernatant, 2.4 week (% in parentheses) [1, 5]: 28%
- Resveratrol in supernatant, 1 week [1, 6]: 45 ppm
- Resveratrol in supernatant, 1 week (% in parentheses) [1, 6]: 75%
- Resveratrol in supernatant, 2.4 week [1, 6]: 39 ppm
- Resveratrol in supernatant, 2.4 week (% in parentheses) [1, 6]: 65%
- Resveratrol in supernatant, Initial ([1]; target 80 ppm, pH 3.0, 5 C.): 80 ppm
- Resveratrol in supernatant, Initial ([1]; target 80 ppm, pH 3.0, 25 C.): 80 ppm
- Resveratrol in supernatant, 1 week [1, 7]: 28 ppm
- Resveratrol in supernatant, 1 week (% in parentheses) [1, 7]: 35%
- Resveratrol in supernatant, 2.4 week [1, 7]: 16 ppm
- Resveratrol in supernatant, 2.4 week (% in parentheses) [1, 7]: 20%
- Resveratrol in supernatant, 1 week [1, 8]: 47 ppm
- Resveratrol in supernatant, 1 week (% in parentheses) [1, 8]: 59%
- Resveratrol in supernatant, 2.4 week [1, 8]: 38 ppm
- Resveratrol in supernatant, 2.4 week (% in parentheses) [1, 8]: 48%
- Resveratrol in supernatant, Initial ([1]; target 80 ppm, pH 6.8, 5 C.): 79 ppm
- Resveratrol in supernatant, Initial ([1]; target 80 ppm, pH 6.8, 25 C.): 79 ppm
- Resveratrol in supernatant, 1 week [1, 9]: 24 ppm
- Resveratrol in supernatant, 1 week (% in parentheses) [1, 9]: 30%
- Resveratrol in supernatant, 2.4 week [1, 9]: 16 ppm
- Resveratrol in supernatant, 2.4 week (% in parentheses) [1, 9]: 20%
- Resveratrol in supernatant, 1 week [1, 10]: 45 ppm
- Resveratrol in supernatant, 1 week (% in parentheses) [1, 10]: 57%
- Resveratrol in supernatant, 2.4 week [1, 10]: 43 ppm
- Resveratrol in supernatant, 2.4 week (% in parentheses) [1, 10]: 54%
- dispersion concentration that would result in precipitation of resveratrol [2]: more than 0.005%
Structure (SMILES): Oc1ccc(C=Cc2cc(O)cc(O)c2)cc1 [Resveratrol, 3,4′,5-trihydroxystilbene]

Reference: patent US8642736B2, “Casein complexes” (DSM IP Assets B. V., priority 2006, dated 2014)
